Values quoted from earlier work, collected in patent US9167842B2, “Functional food preparation and use thereof” (priority 2010, dated 2015).
Where two headings read alike, the source gives them in different places.

Experiments:
[1] = oral, 32 hypercholesterolemic patients, three months
[2] = daily folic acid supplement

COc1ccc2cc3[n+](cc2c1OC)CCc1cc2c(cc1-3)OCO2 [berberine]
reduction of LDL cholesterol [1]: 25% | reduction of plasma cholesterol [1]: 29% | reduction of triglycerides [1]: 35%

Nc1nc2ncc(CNc3ccc(C(=O)N[C@@H](CCC(=O)O)C(=O)O)cc3)nc2c(=O)[nH]1 [folic acid]
reduction of homocysteine [2]: about 60% | reduction of homocysteine ([2]; dose doubled): about 90%
